Laboratory results taken from the NIST ThermoML archive (doi:10.1016/j.fluid.2005.05.012).

Experiment: xn = mol fraction of the nth substance listed
Details: 101.33 kPa, Liquid

CC(C)CO [2-methyl-1-propanol] + CN1CCNCC1
x1 = 1
Details | mass density [kg/m3] | viscosity [mPa·s]
293.15 K | 801.58 | 3.994
298.15 K | 798.09 | 3.334
303.15 K | 794.09 | 2.794

CN1CCNCC1 [N-methylpiperazine] + CC(C)CO
Details | mass density, 293.15 K [kg/m3] | mass density, 298.15 K [kg/m3] | mass density, 303.15 K [kg/m3] | viscosity, 293.15 K [mPa·s] | viscosity, 298.15 K [mPa·s] | viscosity, 303.15 K [mPa·s]
x2 = 0 | 903.78 | 899.8 | 894.55 | 2.1 | 1.841 | 1.624
x2 = 0.0515 | 901.11 | 897.16 | 891.98 | 2.237 | 1.941 | 1.699
x2 = 0.0983 | 898.38 | 894.46 | 889.35 | 2.361 | 2.046 | 1.781
x2 = 0.1506 | 895.07 | 891.19 | 886.16 | 2.542 | 2.198 | 1.914
x2 = 0.2011 | 891.66 | 887.82 | 882.88 | 2.728 | 2.354 | 2.039
x2 = 0.2971 | 884.72 | 880.97 | 876.18 | 3.084 | 2.647 | 2.288
x2 = 0.402 | 876.51 | 872.85 | 868.24 | 3.469 | 2.957 | 2.541
x2 = 0.4982 | 868.29 | 864.71 | 860.24 | 3.838 | 3.249 | 2.785
x2 = 0.6001 | 858.58 | 855.07 | 850.74 | 4.142 | 3.504 | 2.999
x2 = 0.6995 | 847.72 | 844.25 | 840.04 | 4.382 | 3.693 | 3.151
x2 = 0.7978 | 835.15 | 831.71 | 827.6 | 4.487 | 3.789 | 3.211
x2 = 0.8995 | 819.74 | 816.28 | 812.25 | 4.423 | 3.708 | 3.116

CN1CCNCC1 [N-methylpiperazine] + CC(C)O
Details | mass density, 293.15 K [kg/m3] | mass density, 298.15 K [kg/m3] | mass density, 303.15 K [kg/m3] | viscosity, 293.15 K [mPa·s] | viscosity, 298.15 K [mPa·s] | viscosity, 303.15 K [mPa·s]
x2 = 0 | 903.78 | 899.8 | 894.54 | 2.1 | 1.841 | 1.624
x2 = 0.0998 | 897.99 | 893.98 | 888.87 | 2.261 | 1.967 | 1.733
x2 = 0.1988 | 891.42 | 887.39 | 882.45 | 2.393 | 2.072 | 1.816
x2 = 0.3003 | 883.75 | 879.73 | 874.96 | 2.502 | 2.162 | 1.891
x2 = 0.3998 | 875.22 | 871.21 | 866.62 | 2.581 | 2.224 | 1.938
x2 = 0.5 | 865.48 | 861.47 | 857.07 | 2.65 | 2.281 | 1.984
x2 = 0.5996 | 854.41 | 850.38 | 846.15 | 2.69 | 2.312 | 2.012
x2 = 0.7 | 841.49 | 837.39 | 833.32 | 2.704 | 2.329 | 2.027
x2 = 0.7991 | 826.48 | 822.27 | 818.3 | 2.678 | 2.309 | 2.008
x2 = 0.8503 | 817.61 | 813.32 | 809.39 | 2.648 | 2.284 | 1.986
x2 = 0.9003 | 808.06 | 803.69 | 799.79 | 2.615 | 2.25 | 1.954
x2 = 0.9489 | 797.8 | 793.36 | 789.46 | 2.541 | 2.183 | 1.893

CN1CCNCC1 [N-methylpiperazine] + CCCCO
Details | mass density, 293.15 K [kg/m3] | mass density, 298.15 K [kg/m3] | mass density, 303.15 K [kg/m3] | viscosity, 293.15 K [mPa·s] | viscosity, 298.15 K [mPa·s] | viscosity, 303.15 K [mPa·s]
x2 = 0 | 903.79 | 899.8 | 894.54 | 2.1 | 1.841 | 1.624
x2 = 0.0982 | 898.89 | 894.98 | 889.88 | 2.247 | 1.966 | 1.73
x2 = 0.199 | 893.13 | 889.24 | 884.23 | 2.431 | 2.115 | 1.859
x2 = 0.2966 | 886.88 | 883.01 | 878.11 | 2.631 | 2.283 | 2.002
x2 = 0.3973 | 879.73 | 875.91 | 871.16 | 2.841 | 2.461 | 2.153
x2 = 0.5001 | 871.61 | 867.85 | 863.29 | 3.018 | 2.615 | 2.284
x2 = 0.6004 | 862.72 | 859.01 | 854.62 | 3.181 | 2.751 | 2.392
x2 = 0.6995 | 852.72 | 849.01 | 844.76 | 3.261 | 2.832 | 2.471
x2 = 0.7537 | 846.6 | 842.86 | 838.67 | 3.272 | 2.846 | 2.495
x2 = 0.7936 | 841.74 | 837.97 | 833.81 | 3.258 | 2.841 | 2.486
x2 = 0.8002 | 840.9 | 837.13 | 832.97 | 3.247 | 2.833 | 2.489
x2 = 0.8419 | 835.38 | 831.58 | 827.45 | 3.218 | 2.812 | 2.473
x2 = 0.8997 | 827 | 823.16 | 819.05 | 3.145 | 2.756 | 2.427

CN1CCNCC1 [N-methylpiperazine] + CCCO
Details | mass density, 293.15 K [kg/m3] | mass density, 298.15 K [kg/m3] | mass density, 303.15 K [kg/m3] | viscosity, 293.15 K [mPa·s] | viscosity, 298.15 K [mPa·s] | viscosity, 303.15 K [mPa·s]
x2 = 0 | 903.79 | 899.8 | 894.54 | 2.1 | 1.841 | 1.624
x2 = 0.1017 | 899.72 | 895.76 | 890.62 | 2.24 | 1.962 | 1.716
x2 = 0.1987 | 895.17 | 891.23 | 886.21 | 2.369 | 2.058 | 1.809
x2 = 0.3 | 889.62 | 885.71 | 880.86 | 2.536 | 2.2 | 1.932
x2 = 0.4007 | 883.15 | 879.31 | 874.64 | 2.689 | 2.326 | 2.035
x2 = 0.4998 | 875.68 | 871.91 | 867.4 | 2.817 | 2.438 | 2.129
x2 = 0.5504 | 871.35 | 867.6 | 863.18 | 2.863 | 2.478 | 2.167
x2 = 0.6011 | 866.59 | 862.85 | 858.5 | 2.895 | 2.506 | 2.192
x2 = 0.6542 | 861.09 | 857.34 | 853.04 | 2.885 | 2.504 | 2.193
x2 = 0.7001 | 855.83 | 852.05 | 847.8 | 2.874 | 2.497 | 2.186
x2 = 0.7495 | 849.57 | 845.75 | 841.53 | 2.833 | 2.473 | 2.175
x2 = 0.7991 | 842.55 | 838.67 | 834.47 | 2.752 | 2.413 | 2.124
x2 = 0.902 | 825.1 | 821.08 | 816.93 | 2.54 | 2.23 | 1.98

CN1CCNCC1 [N-methylpiperazine] + CCO
Details | mass density, 293.15 K [kg/m3] | mass density, 298.15 K [kg/m3] | mass density, 303.15 K [kg/m3] | viscosity, 293.15 K [mPa·s] | viscosity, 298.15 K [mPa·s] | viscosity, 303.15 K [mPa·s]
x2 = 0 | 903.79 | 899.8 | 894.54 | 2.1 | 1.841 | 1.624
x2 = 0.1002 | 900.18 | 896.19 | 891.01 | 2.141 | 1.87 | 1.65
x2 = 0.1994 | 896.41 | 892.42 | 887.31 | 2.206 | 1.924 | 1.694
x2 = 0.3003 | 891.73 | 887.75 | 882.73 | 2.27 | 1.977 | 1.741
x2 = 0.3493 | 889.02 | 885.06 | 880.09 | 2.285 | 1.992 | 1.753
x2 = 0.4021 | 885.73 | 881.8 | 876.89 | 2.301 | 2.009 | 1.771
x2 = 0.451 | 882.31 | 878.41 | 873.55 | 2.288 | 2.001 | 1.764
x2 = 0.5004 | 878.44 | 874.56 | 869.77 | 2.267 | 1.977 | 1.746
x2 = 0.5994 | 869.22 | 865.36 | 860.68 | 2.175 | 1.909 | 1.698
x2 = 0.7011 | 857.04 | 853.14 | 848.58 | 1.996 | 1.772 | 1.595
x2 = 0.8003 | 841.28 | 837.28 | 832.81 | 1.779 | 1.591 | 1.429
x2 = 0.8982 | 820.12 | 815.97 | 811.57 | 1.526 | 1.366 | 1.239

CN1CCNCC1 [N-methylpiperazine] + CO
Details | mass density, 293.15 K [kg/m3] | mass density, 298.15 K [kg/m3] | mass density, 303.15 K [kg/m3] | viscosity, 293.15 K [mPa·s] | viscosity, 298.15 K [mPa·s] | viscosity, 303.15 K [mPa·s]
x2 = 0 | 903.8 | 899.8 | 894.52 | 2.1 | 1.841 | 1.624
x2 = 0.1021 | 902.85 | 899.04 | 893.84 | 2.103 | 1.849 | 1.643
x2 = 0.1999 | 901.87 | 898.08 | 892.86 | 2.147 | 1.897 | 1.692
x2 = 0.3286 | 899.35 | 895.54 | 890.39 | 2.167 | 1.924 | 1.722
x2 = 0.4143 | 896.64 | 892.82 | 887.8 | 2.141 | 1.897 | 1.676
x2 = 0.4991 | 892.94 | 889.13 | 884.25 | 2.04 | 1.8 | 1.61
x2 = 0.6016 | 886.48 | 882.68 | 877.91 | 1.875 | 1.654 | 1.475
x2 = 0.6999 | 876.84 | 873 | 868.21 | 1.62 | 1.447 | 1.299
x2 = 0.7998 | 860.91 | 856.96 | 851.99 | 1.306 | 1.169 | 1.06
x2 = 0.8999 | 834.46 | 830.26 | 825.04 | 0.935 | 0.854 | 0.788

CCCCO [butan-1-ol] + CN1CCNCC1
x1 = 1
Details | mass density [kg/m3] | viscosity [mPa·s]
293.15 K | 809.97 | 2.938
298.15 K | 806.15 | 2.572
303.15 K | 802.14 | 2.271

CCO [ethanol] + CN1CCNCC1
x1 = 1
Details | mass density [kg/m3] | viscosity [mPa·s]
293.15 K | 789.32 | 1.17
298.15 K | 785.06 | 1.078
303.15 K | 780.68 | 0.982

CO [methanol] + CN1CCNCC1
x1 = 1
Details | mass density [kg/m3] | viscosity [mPa·s]
293.15 K | 791.09 | 0.593
298.15 K | 786.48 | 0.551
303.15 K | 781.22 | 0.509
